Paper PMC9026428, “New Peptide Based Fluconazole Conjugates with Expanded Molecular Targets” (Pharmaceutics, 2022)
Converted amounts (≈) assume the structure as drawn. Read-outs that look alike come from different tables or passages of the source. No end group written: not given here.

Tests used:
[1] = MTT cytotoxicity assay; details: human, Hs27 cells (human foreskin fibroblast cell line)
Experimental: (§1) The assessment of antifungal potential of synthesized agents was carried out using four reference strains (C. albicans ATCC 10231, C. albicans SC5314, C. glabrata DSM […] and C. krusei DSM […]) and six clinical isolates of fluconazole-resistant C. albicans that were provided by the Hospital of Medical University of Gdansk, Poland. Moreover, four C. albicans isolates, assigned as B3, B4, Gu4 and Gu5, were used for investigation whether the synthesized fluconazole derivatives were effectively removed from the yeast cells by the drug efflux transporters, as in the case of fluconazole. These strains were kindly provided by Prof. Joachim Morschhäuser from University of Würzburg (Würzburg, Germany). Strains Gu4 and B3 were fluconazole-sensitive isolates obtained from early infection episodes, while Gu5 and B4 were the corresponding fluconazole-resistant isolates obtained from later episodes in the same patients treated with fluconazole. The lack of susceptibility of the Gu5 strain to fluconazole was a consequence of overexpression of CDR1/2 genes encoding ABC transporters, whereas the resistance of B4 strain was caused by overexpression of the MDR1 gene encoding a membrane transport protein of the major facilitator superfamily (MFS). All of these Candida spp. strains were maintained on YPD agar plates (1% (w/v) yeast extract, 2% (w/v) peptone, 2% (w/v) glucose, 2% (w/v) agar) at 30 °C for 16–24 h. For all of the assays aimed at assessing the antifungal potential of the synthesized agents, the yeasts were cultivated at 37 °C in RPMI 1640 medium (with L-glutamine, without sodium bicarbonate, Sigma-Aldrich, Darmstadt, Germany)) buffered to a pH of 7.0 with 0.165 M morpholinepropanesulfonic acid (MOPS) buffer (Sigma-Aldrich). In this study, we used the human foreskin fibroblast cell line Hs27 (ATCC CRL 1634TM) and the human endothelial cell line HUVEC (C2519A), purchased from Lonza Group AG, (Basel, Switzerland). The Hs27 cells were maintained in cell media consisting of Dulbecco’s modified Eagles medium (DMEM), (Corning, Arizona, USA) with 10% fetal bovine serum (FBS), (Corning, Port Elizabeth, South Africa), 1% penicillin/streptomycin (Sigma-Aldrich Inc., Darmstadt, Germany), and 1% L-glutamine (Corning, Arizona, USA). The human endothelial cell line was maintained in cell media consisting of Endothelial Cell Growth Medium-2 Single Quots Kit (Lonza, USA). Both cell lines were cultured in an incubator at 37 °C and 5% CO2.
(§2) Hs27 and HUVEC mammalian cell lines were cultured as mentioned above. Once cell lines were about 80% confluent, cells were counted by a hemacytometer (Hausser Scientific, Horsham, PA, USA) and plated in 96-well microtiter plates at concentrations of 4500 cells per well for Hs27 and 2000 cells per well for HUVEC. Cells were allowed to attach overnight. […] The final concentration of DMSO was ensured to be around 1% in all experiments. Cells were incubated with studied compounds for 72 h at 37 °C and 5% CO2. After incubation, 20 µL of MTT solution in PBS (4 mg/mL) was added to all wells and incubated further for 3 h at 37 °C. Formed formazan crystals were dissolved in 150 µL DMSO, and absorbance was measured using an Asys UVM340 multi-well plate reader at λ = 540 nm. Cytotoxicity was determined compared to drug-free control. All experiments were performed in biological triplicates.

[2] = tested on: Hs27 cells (human foreskin fibroblast cell line); assay: MTT cytotoxicity assay
Experimental: as §1, §2

[3] = tested on: C. albicans SC5314; assay: Membrane permeabilization assay by propidium iodide uptake (flow cytometry, fluorescence microscopy); assay type: cell-based, Candida albicans
Experimental: Suspensions of C. albicans SC5314 were prepared by taking one loop of pure culture growth from 24 h YPD agar plates into RPMI 1640 medium and adjusting optical density to 0.1 at 660 nm wavelength. […] The cell suspensions were then treated for 0.5, 2, 4, 6, and 24 h at 37 °C with continuous agitation (180 rpm). The cells were then centrifuged and resuspended in 200 µL of PBS buffer (pH 7.4). Subsequently, cells were treated with propidium iodide (1 mg/mL, final concentration) and incubated for 30 min at room temperature in the dark. Cellular fluorescence was visualized using lens 20×, using Olympus Fluorescence Microscope BX60 (Olympus, Tokyo, Japan). The images were also post-processed utilizing cell Sens program. The fluorescence intensity emitted by DNA-bound propidium iodide was measured using a flow cytometer (Merck Millipore guava easyCyte 8, Darmstadt, Germany). Data were obtained from at least two independent experiments.

[4] = tested on: Candida albicans Gu4; assay: microbe, parasite or virus in culture; details: Candida albicans, GU4, 24 h
Experimental: as §1
(§3) Antifungal activity of the tested compounds against yeast cells was determined in 96-well plates as described in the CLSI document M27-A3 [39], with minor modifications (CLSI, 2008). […] The plates were incubated for 24 h at 37 °C. Each test was performed in triplicate. The final concentration of DMSO was ensured to be around 1% in all experiments.
(§4) For determination of minimum fungicidal concentrations (MFC), small aliquots of suspensions (around 10 μL) from each well were transferred using the pipette to YPD agar plates without inhibitors and incubated for 24 h at 37 °C.

[5] = tested on: Candida albicans B4; assay: microbe, parasite or virus in culture; details: Candida albicans, B4, 24 h
Experimental: as §1, §3, §4

[6] = tested on: Candida albicans 247; assay: microbe, parasite or virus in culture; details: Candida albicans, 247, 24 h
Experimental: as §1, §3, §4

[7] = tested on: Candida albicans ATCC 10231; assay: microbe, parasite or virus in culture; details: Candida albicans, ATCC10231, 24 h; for MIC50 / MIC90: pH 7
Experimental: as §1, §3, §4

[8] = tested on: Candida krusei DSM 11226; assay: microbe, parasite or virus in culture; details: Pichia kudriavzevii, DSM11226, 24 h; for MIC50 / MIC90: pH 7
Experimental: as §1, §3, §4

[9] = tested on: Candida albicans 138; assay: microbe, parasite or virus in culture; details: Candida albicans, 138, 24 h
Experimental: as §1, §3, §4

[10] = tested on: Candida albicans 574; assay: microbe, parasite or virus in culture; details: Candida albicans, 574, 24 h
Experimental: as §1, §3, §4

[11] = tested on: Candida albicans 604; assay: microbe, parasite or virus in culture; details: Candida albicans, 604, 24 h
Experimental: as §1, §3, §4

[12] = tested on: Candida albicans 48; assay: microbe, parasite or virus in culture; details: Candida albicans, 48, 24 h
Experimental: as §1, §3, §4

[13] = tested on: Candida albicans 190; assay: microbe, parasite or virus in culture; details: Candida albicans, 190, 24 h
Experimental: as §1, §3, §4

[14] = tested on: Candida albicans SC 5314; assay: microbe, parasite or virus in culture; details: Candida albicans, SC5314, 24 h; for MIC50 / MIC90: pH 7
Experimental: as §1, §3, §4

[15] = tested on: Candida albicans B3; assay: microbe, parasite or virus in culture; details: Candida albicans, B3, 24 h
Experimental: as §1, §3, §4

[16] = tested on: Candida albicans Gu5; assay: microbe, parasite or virus in culture; details: Candida albicans, GU5, 24 h
Experimental: as §1, §3, §4

[17] = tested on: Candida glabrata DSM 6128; assay: microbe, parasite or virus in culture; details: Nakaseomyces glabratus, DSM6128, 24 h; for MIC50 / MIC90: pH 7
Experimental: as §1, §3, §4

[18] = cited from earlier work
Experimental: Fluconazole is water-soluble, safe for patients even at a high daily dose ([…]), can be applied either intravenously or orally, and has a beneficial pharmacokinetic profile and broad spectrum of activity.

[19] = tested on: HUVEC cells (human umbilical venous endothelial primary cells); assay: MTT cytotoxicity assay
Experimental: as §1, §2

[20] = MTT cytotoxicity assay; details: human
Experimental: as §1, §2

[21] = tested on: C. glabrata DSM 11226; details: C. glabrata DSM 11226, RPMI-1640, 200 – 0.4 μg/mL range
Experimental: (§5) The selective activities of the FLC-conjugates were calculated according to the following formula
(§6) (1 picture or pasted object on this page, not shown here)

[22] = tested on: C. albicans ATCC 10231; details: C. albicans ATCC 10231, RPMI-1640, 200 – 0.4 μg/mL range
Experimental: as §5, §6

[23] = tested on: C. krusei DSM 6128; details: C. krusei DSM 6128, RPMI-1640, 200 – 0.4 μg/mL range
Experimental: as §5, §6

[24] = tested on: C. tropicalis (clinical); details: RPMI-1640, 200 – 0.4 μg/mL range
Experimental: as §5, §6

[25] = tested on: Candida spp. strains tested; assay: Antifungal activity against the whole panel of strains tested; assay type: cell-based; details: Candida; all strains of Table 2
Experimental: Antifungal activity of the tested compounds against yeast cells was determined in 96-well plates as described in the CLSI document M27-A3 [39], with minor modifications (CLSI, 2008). Suspensions of the microorganisms were prepared by taking one loop of pure culture into sterile water and adjusting optical density to 0.1 at 660 nm wavelength and further 50-fold dilution in RPMI 1640 medium, resulting in cell concentration of approximately 2 × 10^4 CFU/mL [21]. Then, 100 μL of cells were added to the wells of a 96-well microtiter plate that contained 16–500 μM tested compounds and 16–500 μM of FLC or 0.2–62 μM AmB. The plates were incubated for 24 h at 37 °C. Each test was performed in triplicate. […] The MIC90 was defined as the lowest concentration of drug showing no visible growth; MIC50 was defined as the concentration that yielded at least 50% growth inhibition when compared with the growth control well.

## OC(Cn1cncn1)(Cn1cncn1)c1ccc(F)cc1F [FLC, fluconazole]
[1]
  IC50 at 72 h: > 100 µM
[2]
  In vitro cytotoxicity IC90 ± SEM: >100 µM
[3]; C. albicans SC5314, 8 × MIC (62 µM), 4 or 6 h
  cell membrane disruption (PI uptake), in words: No symptoms of cell membrane disruption
[3]; SC5314, 4 h
  Dead (%), PI uptake by flow cytometry: 2,50%
  Live (%), PI uptake by flow cytometry: 97,5%
[3]; SC5314, 6 h
  Dead (%), PI uptake by flow cytometry: 2,83%
  Live (%), PI uptake by flow cytometry: 97,2%
[4]; pH 7
  MIC90: 31 µM (≈ 9.49 µg/mL)
[5]; pH 7
  MIC90: 62 µM (≈ 19 µg/mL)
[6]; pH 7
  MIC90: > 250 µM
[7]
  MIC50: < 8 µM
  MIC90: < 8 µM
[8]
  MIC50: 70 µM (≈ 21.4 µg/mL)
  MIC90: 125 µM (≈ 38.3 µg/mL)
[9]; pH 7
  MIC90: > 250 µM
[10]; pH 7
  MIC90: > 250 µM
[11]; pH 7
  MIC90: > 250 µM
[12]; pH 7
  MIC90: > 250 µM
[13]; pH 7
  MIC90: > 250 µM
[14]
  MIC50: < 8 µM
  MIC90: < 8 µM
[15]; pH 7
  MIC90: 15 µM (≈ 4.59 µg/mL)
[16]; pH 7
  MIC90: > 250 µM
[17]
  MIC50: 62 µM (≈ 19 µg/mL)
  MIC90: 250 µM (≈ 76.6 µg/mL)
[18]; in vivo
  incidence rate of azole-induced liver injury: 1%
[19]
  In vitro cytotoxicity IC90 ± SEM: >100 µM
[20]
  IC50 at 72 h: > 100 µM

## CFQWKRAMRKVR-NH2 [HLopt2-NH2]
[21]
  MIC50: > 250 µg/mL
  MIC90: > 250 µg/mL
[22]
  MIC50: > 250 µg/mL
[23]
  MIC50: 250 µg/mL
  MIC90: 250 µg/mL
[24]
  MIC50: > 250 µg/mL
  MIC90: > 250 µg/mL

## CC(=O)N1CCN(c2ccc(OCC3COC(Cn4ccnc4)(c4ccc(Cl)cc4Cl)O3)cc2)CC1 (centres unmarked) [ketoconazole]
[18]
  incidence rate of azole-induced liver injury: 2–10%

## CCC(C)n1ncn(-c2ccc(N3CCN(c4ccc(OCC5COC(Cn6cncn6)(c6ccc(Cl)cc6Cl)O5)cc4)CC3)cc2)c1=O (centres unmarked) [itraconazole]
[18]; in vivo
  incidence rate of azole-induced liver injury: 2–4%

## C[C@@H]1[C@H](O)[C@@H](C)/C=C/C=C/C=C/C=C/C=C/C=C/C=C/[C@H](O[C@@H]2O[C@H](C)[C@@H](O)[C@H](N)[C@@H]2O)C[C@@H]2O[C@](O)(C[C@@H](O)C[C@@H](O)[C@H](O)CC[C@@H](O)C[C@@H](O)CC(=O)O[C@H]1C)C[C@H](O)[C@H]2C(=O)O [Amphotericin B (AmpB), Amphotericin B, reference compound]
[4]
  MFC: < 0.1 µM
[4]; pH 7
  MIC50: < 0.1 µM
  MIC90: < 0.1 µM
[5]
  MFC: < 0.1 µM
[5]; pH 7
  MIC50: < 0.1 µM
  MIC90: < 0.1 µM
[6]
  MFC: < 0.1 µM
[6]; pH 7
  MIC50: < 0.1 µM
  MIC90: < 0.1 µM
[7]
  MFC: < 0.1 µM
  MIC50: < 0.1 µM
  MIC90: < 0.1 µM
[8]
  MFC: < 0.1 µM
  MIC50: < 0.1 µM
  MIC90: < 0.1 µM
[9]
  MFC: < 0.1 µM
[9]; pH 7
  MIC50: < 0.1 µM
  MIC90: < 0.1 µM
[10]
  MFC: < 0.1 µM
[10]; pH 7
  MIC50: < 0.1 µM
  MIC90: < 0.1 µM
[11]
  MFC: < 0.1 µM
[11]; pH 7
  MIC50: < 0.1 µM
  MIC90: < 0.1 µM
[12]
  MFC: < 0.1 µM
[12]; pH 7
  MIC50: < 0.1 µM
  MIC90: < 0.1 µM
[13]
  MFC: < 0.1 µM
[13]; pH 7
  MIC50: < 0.1 µM
  MIC90: < 0.1 µM
[14]
  MFC: < 0.1 µM
  MIC50: < 0.1 µM
  MIC90: < 0.1 µM
[15]
  MFC: < 0.1 µM
[15]; pH 7
  MIC50: < 0.1 µM
  MIC90: < 0.1 µM
[16]
  MFC: < 0.1 µM
[16]; pH 7
  MIC50: < 0.1 µM
  MIC90: < 0.1 µM
[17]
  MFC: < 0.1 µM
  MIC50: < 0.1 µM
  MIC90: < 0.1 µM
[25]
  MIC: < 0.1 µM
